The values below are quoted from earlier work in US8309103B2, “Association of fluconazole-tinidazole for the treatment of vaginal infections, its composition, preparation process and usage” (Alparis, S.A. DE C.V., priority 2004, dated 2012).

The structures appear in SMILES notation. Where two headings read alike, the source gives them in different places.

In data set [1] the test system is vaginal candidiasis. As to conditions: one dose of 150 mg; 1,017 patients with vaginal candidiasis.
For data set [2] the following is noted: in vivo, po.
For data set [3], the system named is Trichomonas vaginalis. The conditions noted are these: 2 grams in an only dose, sexual partner also involved.
For data set [4], the system named is Bacterial Vaginosis (Gardnerella vaginallis).

With `OC(Cn1cncn1)(Cn1cncn1)c1ccc(F)cc1F` [fluconazole], the “Patients in whom well received and effective” value in data set [1] is reported as 91%. Also, the “Relationship between plasma and the vaginal tissue” value in data set [2] is reported as 0.94-1.1.
As for `Cc1ncc([N+](=O)[O-])n1CCO` [metronidazole], the Efficacy entry in data set [3] was “up to 85%”.
With `Cc1ncc([N+](=O)[O-])n1CC(C)O` (centres unmarked) [secnidazole], the “Share of the dose taken excreted (essentially urinary)” value (in 120 hours) is 50%. Moreover, for the setting “oral, one 2 g dose”, the Average plasmatic life entry is listed as “about 25 hours” and the “Time at which the highest seric rates are obtained” value is “third”.
Regarding `CCS(=O)(=O)CCn1c([N+](=O)[O-])cnc1C` [tinidazole], the Curative rate in data set [4] (an only dose of 2 g tinidazole) is 92%; in data set [4] (same amount (2 g) in a two-day scheme, other researchers), 51%.
